Test results reported in publication PMC8427641 (ACS Omega, 2021).

Each compound was assayed against T1, α-amylase (Homo sapiens, UniProt P04746) (assay: α-Amylase inhibition assay).
T1 sequence (P04746 16-511): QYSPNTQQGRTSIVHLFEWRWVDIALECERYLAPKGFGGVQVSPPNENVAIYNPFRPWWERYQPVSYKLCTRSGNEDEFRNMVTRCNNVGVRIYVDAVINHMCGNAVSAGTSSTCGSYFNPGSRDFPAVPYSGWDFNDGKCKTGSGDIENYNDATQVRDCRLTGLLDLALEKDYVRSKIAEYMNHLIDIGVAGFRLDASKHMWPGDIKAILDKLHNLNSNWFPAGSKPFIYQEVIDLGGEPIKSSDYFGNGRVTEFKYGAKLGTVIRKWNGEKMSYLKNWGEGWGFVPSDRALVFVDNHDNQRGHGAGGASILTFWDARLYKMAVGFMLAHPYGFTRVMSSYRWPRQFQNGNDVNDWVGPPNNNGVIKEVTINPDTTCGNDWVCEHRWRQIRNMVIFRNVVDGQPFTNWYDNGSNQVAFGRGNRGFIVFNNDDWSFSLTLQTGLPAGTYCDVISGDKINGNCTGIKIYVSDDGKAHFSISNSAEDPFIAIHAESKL
Assay type: biochemical
In the case of `COc1cc(-c2nc3cc(Cl)ccc3[nH]2)ccc1OCc1ccccc1` [Compound 24, 5-Chloro-2-(4^′-(benzyloxy)-3^′-methoxyphenyl)-1H-benzo[d]imidazole], the IC50 is reported as 2160 ± 20 nM. Compound `Cc1cc2nc(-c3ccc(OCc4ccccc4)cc3)[nH]c2cc1C` [Compound 30, 5,6-Dimethyl-2-(4^′-(benzyloxy)phenyl)-1H-benzo[d]imidazole] has an IC50 of 2160 ± 70 nM. In the case of `Clc1ccc2[nH]c(-c3cccc(OCc4ccccc4)c3)nc2c1` [Compound 29, 5-Chloro-2-(3^′-(benzyloxy)phenyl)-1H-benzo[d]imidazole], the IC50 is reported as 2470 ± 110 nM. Compound `Fc1ccc2[nH]c(-c3ccc(OCc4ccccc4)cc3)nc2c1` [Compound 31, 5-Fluoro-2-(4^′-(benzyloxy)phenyl)-1H-benzo[d]imidazole] has an IC50 of 2150 ± 60 nM.
